Where two headings read alike, the source gives them in different places.
Tests used:
CAKI-1 = assay: NCI 60 cell line panel screen (SRB); assay type: cell-based, human; settings: for Log10TGI50: TGI: PG=0; for Log10GI50: Renal Cancer, CAKI-1
PC-3 = assay: NCI 60 cell line panel screen (SRB); assay type: cell-based, human; settings: for Log10TGI50: TGI: PG=0
RXF 393 = assay: NCI 60 cell line panel screen (SRB); assay type: cell-based, human; settings: for Log10TGI50: TGI: PG=0
MDA-MB-435 = assay: NCI 60 cell line panel screen (SRB); assay type: cell-based, human; settings: for Log10GI50: Breast Cancer, MDA-MB-435; for Log10TGI50: TGI: PG=0
SK-OV-3 = assay: NCI 60 cell line panel screen (SRB); assay type: cell-based, human; settings: for Log10GI50: Ovarian Cancer, SK-OV-3; for Log10TGI50: TGI: PG=0
[1] = tested on: chloroquine-sensitive P. falciparum (NF54); assay: Antimalarial activity in vitro, [3H]hypoxanthine incorporation; assay type: cell-based
K-562 = assay: NCI 60 cell line panel screen (SRB); assay type: cell-based, human; settings: K-562 (Leukemia); TGI: PG=0
60 cell line panel = assay type: cell-based; settings: for Log10LC50 Delta / Log10LC50 Range / Log10TGI50 Delta / Log10TGI50 Range: 60 cell line panel; for Log10GI50 MG MID: mean over panel; for Log10LC50 MG MID / Log10TGI50 MG MID: mean value over the 60 cell line panel
HOP-62 = assay: NCI 60 cell line panel screen (SRB); assay type: cell-based, human; settings: for Log10TGI50: TGI: PG=0
OVCAR-8 = assay: NCI 60 cell line panel screen (SRB); assay type: cell-based, human; settings: for Log10GI50: Ovarian Cancer, OVCAR-8
SK-MEL-2 = assay: NCI 60 cell line panel screen (SRB); assay type: cell-based, human; settings: for Log10GI50: Melanoma, SK-MEL-2; for Log10TGI50: SK-MEL-2 (Melanoma), TGI: PG=0
HCT-116 = assay: NCI 60 cell line panel screen (SRB); assay type: cell-based, human; settings: for Log10TGI50: TGI: PG=0
NCI-H460 = assay: NCI 60 cell line panel screen (SRB); assay type: cell-based, human; settings: for Log10TGI50: TGI: PG=0
MALME-3M = assay: NCI 60 cell line panel screen (SRB); assay type: cell-based, human; settings: for Log10TGI50: TGI: PG=0
SF-539 = assay: NCI 60 cell line panel screen (SRB); assay type: cell-based, human
OVCAR-3 = assay: NCI 60 cell line panel screen (SRB); assay type: cell-based, human
SNB-19 = assay: NCI 60 cell line panel screen (SRB); assay type: cell-based, human
[2] = Table I, NF54 strain, read-out: IC50
[3] = HOP-62 (Non-Small Cell Lung Cancer)
[4] = NCI-H460 (Non-Small Cell Lung Cancer)

CC1CCC2C(C)C(CC(COCC(=O)O)CC3OC4OC5(C)CCC6C(C)CCC(C3C)C46OO5)OC3OC4(C)CCC1C32OO4 (stereo not shown) [Compound 12b, bis-trioxane O-acetic acid]
Log10TGI50 (CAKI-1; CAKI-1 (Renal Cancer)): −6.40 log10M
Log10GI50 (CAKI-1): −6.91
Log10TGI50 (PC-3; PC-3 (Prostate Cancer)): −4.92 log10M
Log10TGI50 (RXF 393; RXF 393 (Renal Cancer)): <−8.30 log10M
Log10GI50 (MDA-MB-435): −6.97
Log10TGI50 (MDA-MB-435; MDA-MB-435 (Breast Cancer)): >−4.30 log10M
Log10GI50 (SK-OV-3): >−4.30
Log10TGI50 (SK-OV-3; SK-OV-3 (Ovarian Cancer)): >−4.30 log10M
IC50 [1, 2]: 3.2 nM
Log10TGI50 (K-562): >−4.30 log10M
Log10GI50 Delta (60 cell line panel): 1.57
Log10GI50 Range (60 cell line panel): 4.00
Log10LC50 Delta (60 cell line panel): 0.70
Log10LC50 Range (60 cell line panel): 0.72
Log10TGI50 Delta (60 cell line panel): 3.49
Log10TGI50 Range (60 cell line panel): 4.00
growth inhibition in words (60 cell line panel; colon cancer KM12, ovarian cancer OVCAR 3, breast cancer MDA-MB-435): selectively and strong inhibitory
Log10GI50 MG MID (60 cell line panel): −6.73
Log10LC50 MG MID (60 cell line panel): −4.32 log10M
Log10TGI50 MG MID (60 cell line panel): −4.81 log10M
Log10TGI50 (HOP-62; [3]): >−4.30 log10M
Log10GI50 (HOP-62; Non-Small Cell Lung Cancer, HOP-62): −6.23
Log10TGI50 (OVCAR-8; OVCAR-8 (Ovarian Cancer), TGI: PG=0): >−4.30 log10M
Log10GI50 (OVCAR-8): >−4.30
Log10GI50 (SK-MEL-2): −5.62
Log10TGI50 (SK-MEL-2): >−4.30 log10M
Log10TGI50 (HCT-116; HCT-116 (Colon Cancer)): >−4.30 log10M
Log10TGI50 (NCI-H460; [4]): >−4.30 log10M
Log10TGI50 (MALME-3M; MALME-3M (Melanoma)): −6.40 log10M

CC1CCC2C(C)C(CC(COC(=O)c3cc[n+]([O-])cc3)CC3OC4OC5(C)CCC6C(C)CCC(C3C)C46OO5)OC3OC4(C)CCC1C32OO4 (stereo not shown) [Compound 13, bis-trioxane primary alcohol isonicotinate N-oxide]
Log10LC50 (CAKI-1; CAKI-1 (Renal Cancer), LC50: PG=−50): −4.66 log10M
Log10TGI50 (CAKI-1; CAKI-1 (Renal Cancer)): −5.11 log10M
Log10GI50 (CAKI-1): −7.36
Log10GI50 (SF-539; CNS Cancer, SF-539): <−8.30
Log10LC50 (SF-539; SF-539 (CNS Cancer), LC50: PG=−50): −4.56 log10M
Log10LC50 (PC-3; PC-3 (Prostate Cancer), LC50: PG=−50): −4.63 log10M
Log10TGI50 (PC-3; PC-3 (Prostate Cancer)): −5.11 log10M
Log10GI50 (PC-3; Prostate Cancer, PC-3): <−8.30
Log10LC50 (RXF 393; RXF 393 (Renal Cancer), LC50: PG=−50): >−4.30 log10M
Log10TGI50 (RXF 393; RXF 393 (Renal Cancer)): −4.69 log10M
Log10GI50 (RXF 393; Renal Cancer, RXF 393): −5.20
Log10GI50 (MDA-MB-435): −7.62
Log10LC50 (MDA-MB-435; MDA-MB-435 (Breast Cancer), LC50: PG=−50): −4.46 log10M
Log10TGI50 (MDA-MB-435; MDA-MB-435 (Breast Cancer)): −4.94 log10M
Log10GI50 (SK-OV-3): −5.13
Log10LC50 (SK-OV-3; SK-OV-3 (Ovarian Cancer), LC50: PG=−50): −4.31 log10M
Log10TGI50 (SK-OV-3; SK-OV-3 (Ovarian Cancer)): −4.72 log10M
IC50 [1]: sub-nanomolar
IC50 [1, 2]: 0.53 nM
Log10LC50 (OVCAR-3; OVCAR-3 (Ovarian Cancer), LC50: PG=−50): −4.51 log10M
Log10TGI50 (OVCAR-3; OVCAR-3 (Ovarian Cancer), TGI: PG=0): −4.98 log10M
Log10GI50 (OVCAR-3; Ovarian Cancer, OVCAR-3): −7.75
Log10GI50 Delta (60 cell line panel): 0.92
Log10GI50 Range (60 cell line panel): 3.22
Log10LC50 Delta (60 cell line panel): 1.27
Log10LC50 Range (60 cell line panel): 1.49
Log10TGI50 Delta (60 cell line panel): 3.15
Log10TGI50 Range (60 cell line panel): 4.00
Log10GI50 MG MID (60 cell line panel): −7.38
Log10LC50 MG MID (60 cell line panel): −4.51 log10M
Log10TGI50 MG MID (60 cell line panel): −5.15 log10M
Log10LC50 (HOP-62; HOP-62 (Non-Small Cell Lung Cancer), LC50: PG=−50): −4.54 log10M
Log10TGI50 (HOP-62; [3]): −4.91 log10M
Log10LC50 (OVCAR-8; OVCAR-8 (Ovarian Cancer), LC50: PG=−50): >−4.30 log10M
Log10GI50 (OVCAR-8): −7.69
Log10GI50 (SNB-19; CNS Cancer, SNB-19): −5.08
Log10LC50 (SNB-19; SNB-19 (CNS Cancer), LC50: PG=−50): >−4.30 log10M
Log10TGI50 (SNB-19; SNB-19 (CNS Cancer), TGI: PG=0): >−4.30 log10M
Log10GI50 (SK-MEL-2): −5.12
Log10LC50 (SK-MEL-2; SK-MEL2 (Melanoma), LC50: PG=−50): >−4.30 log10M
Log10TGI50 (SK-MEL-2): >−4.30 log10M
Log10GI50 (HCT-116; Colon Cancer, HCT-116): <−8.30
Log10LC50 (HCT-116; HCT-116 (Colon Cancer), LC50: PG=−50): >−4.30 log10M
Log10TGI50 (HCT-116; HCT-116 (Colon Cancer)): −5.06 log10M
Log10LC50 (NCI-H460; NCI-H460 (Non-Small Cell Lung Cancer), LC50: PG=−50): −4.36 log10M
Log10TGI50 (NCI-H460; [4]): −4.92 log10M
Log10GI50 (NCI-H460; Non-Small Cell Lung Cancer, NCI-H460): <−8.30
Log10LC50 (MALME-3M; MALME-3M (Melanoma), LC50: PG=−50): −4.66 log10M
Log10TGI50 (MALME-3M; MALME-3M (Melanoma)): <−8.30 log10M
Log10GI50 (MALME-3M; Melanoma, MALME-3M): <−8.30
